# Experimental data reported in PubChem BioAssay (NCI).
#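 Following 48 hours of exposure in 96-well plates, responses at five concentrations were used to interpolate endpoints linearly. GI50 is the concentration that inhibits growth by half. The concentration for full growth arrest is given as TGI.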
# Columns and labels:
# Assay in all cases: NCI-60 cell line screen, 48 h
# [1] = tested on: A498 renal
# [2] = tested on: COLO 205 colon
# [3] = tested on: EKVX NSCLC
# [4] = tested on: HCC-2998 colon
# [5] = tested on: HOP-62 NSCLC
# [6] = tested on: MCF7 breast
# [7] = tested on: NCI-H23 lung
# [8] = tested on: NCI/ADR-RES ovarian
# [9] = tested on: OVCAR-8 ovarian
# [10] = tested on: SK-MEL-5 melanoma
Structure (SMILES),GI50 [1] [µM],TGI [1] [µM],GI50 [2] [µM],TGI [2] [µM],GI50 [3] [µM],TGI [3] [µM],TGI [4] [µM],GI50 [5] [µM],TGI [5] [µM],GI50 [6] [µM],TGI [6] [µM],GI50 [7] [µM],TGI [7] [µM],GI50 [8] [µM],TGI [8] [µM],GI50 [9] [µM],TGI [9] [µM],GI50 [10] [µM],TGI [10] [µM],GI50 [4] [µM]
COc1ccc(/C=c2/sc3n(c2=O)C(c2ccc(OC)c(OC)c2)C2=C(N=3)c3cc(F)ccc3OC2)cc1 (stereo not drawn),45.6,> 80.9,30.1,> 57.1,39.7,> 100,21.2,37.7,> 100,23.6,> 100,3.69,26.1,18.7,87.4,40.2,> 100,22.3,> 62.4,
CC(=O)O[C@@H]1C[C@]2(C(C)C)O[C@@]1(C)[C@@H]1CCC(C)=C1[C@@H]2OC(=O)/C=C/c1ccccc1,2.19,6.59,31.4,> 100,20,> 100,> 100,88.8,> 100,19.5,> 100,35.3,> 100,23.1,> 100,8.89,> 100,22.5,78.5,68.1
NC(N)=N/N=C/c1cc(Cl)cc(Cl)c1O,,> 100,,> 100,,> 100,32,,> 100,,> 100,,> 100,,> 100,,> 100,,> 100,
COc1ccc(-c2cc(-c3cccn3C)c(C#N)c(N)n2)cc1OC,82.8,> 100,> 100,> 100,> 100,> 100,> 100,,,94.3,> 100,> 100,> 100,> 100,> 100,> 100,> 100,> 100,> 100,> 100
OCCCCC#Cc1ccccc1C#Cc1cccc(O)c1,18.5,39.4,19.7,35.6,23.5,57,35.5,,,35.7,> 100,18,36.1,20,47,18.2,36.9,17.8,32.7,19.1
CN(C)c1ccc2nc3ccc(=O)cc-3sc2c1,11,> 92.8,0.38,3.81,,,> 100,0.763,> 56.9,0.445,5.75,0.82,> 100,0.665,> 100,0.651,> 100,0.173,0.495,0.697
CN1CCc2c(Sc3ccc(C(=O)NO)cc3)c3ccccc3n2C1,0.185,2.44,1.92,4.52,,,3.86,1.97,6.12,2.7,13.6,1.7,3.88,6.81,51.7,1.69,5.42,2.39,6.67,1.77
CCOC(=O)C1=C(C)N(N)C(=S)NC1c1ccc(C)cc1 (stereo not drawn),11.2,> 100,33.5,> 100,,,27.1,> 100,> 100,16,73.6,63.9,> 100,61.9,> 100,> 100,> 100,13.1,30.4,0.811
CSC1(CC(=O)N(C)C)C(=O)Nc2ccccc21 (stereo not drawn),,> 100,,> 100,,> 100,> 100,,> 100,,> 100,,> 100,,> 100,,,,> 100,
Cc1c(C2Nc3ccccc3C2C)[nH]c2ccccc12 (stereo not drawn),10.7,23.1,10.5,22.5,,,26.6,12.1,26.1,4.26,27.8,14.5,32.1,10.4,30.7,9.1,29.2,0.894,17.4,12.6
COc1cc2c(cc1OC)C13CCN4CC5=CCOC6CC(=O)N2C1C6C5CC43O (stereo not drawn),,> 100,,> 100,,> 100,> 100,,,,> 100,,> 100,,> 100,,> 100,,> 100,
CCN(CC)CCNCC(=O)Oc1ccc(/C=C/C(=O)CC(=O)/C=C/c2ccc(OC(=O)CNCCN(CC)CC)c(OC)c2)cc1OC,3.34,11.6,5.06,22.8,2.01,5.4,4.36,3.34,12.8,2.58,18,,,5.73,> 100,3.69,15,2.57,9.65,2.1
